Legend:
[1] = tested on: Human AdV6; assay: High dose filociclovir against intravenously administered AdV6 in immunosuppressed hamsters (Example 5); conditions: for mortality: p=0.0124 vs AdV6+Vehicle; for virus burden in the liver: TCID50
Description: Four dose levels were tested: 10, 30, 60, and 100 mg/kg p.o. q.d. The highest dose was determined based on rat toxicology data.
All hamsters were immunosuppressed using cyclophosphamide (CP). CP was administered intraperitoneally at a dose of 140 mg/kg, and then twice weekly at a dose of 100 mg/kg.
Filociclovir, in powdered form, was suspended in 0.4% carboxymethyl cellulose (Sigma C5678) at 1, 3, 6, and 10 mg/ml and sonicated to visual homogeneity and aliquots stored at 4° C. Aliquots were allowed to equilibrate to room temperature before dosing. Hamsters weighing approximately 100 g were dosed with a 1 ml volume of the appropriate suspension for the 10, 30, 60, and 100 mg/kg dose levels. References to “vehicle” refers to 0.4% carboxymethyl cellulose
The hamsters were divided into 8 groups, 15 hamsters/group, (with the exception of Group 2, which had only 5 hamsters; see Table 3), immunosuppressed, and then injected i.v. with vehicle (Groups 1-2) or 2×10^10 PFU/kg of AdV6 (Groups […]). Groups 1 and 3 received drug vehicle (p.o. q.d.), Group 4 received 10 mg/kg filociclovir (p.o. q.d.), Group 5 received 30 mg/kg filociclovir (p.o. q.d.), Group 6 received 60 mg/kg filociclovir (p.o. q.d.), Groups 2 and 7 received 100 mg/kg filociclovir (p.o. q.d.), and Group 8 received cidofovir (20 mg/kg, 3 times weekly). For all groups, drug administration started 1 day before challenge, and continued according to the schedule above for the duration of the study.
The body weights and any signs of morbidity of the animals were recorded daily. At 5 days post challenge, 5 hamsters (designated at the start of the experiment) from each group (with the exception of Group 2) were sacrificed, and gross pathological observation was performed. Serum and liver samples were collected and the virus burden in liver was determined by a TCID50 assay, and the serum was analyzed for transaminase levels. The remaining 10 hamsters were sacrificed at 14 days post challenge. Hamsters that became visually moribund before Day 14 were sacrificed as needed. In addition to the hamsters observed to be moribund, all hamsters that lost more than 20% of their original body weight were also sacrificed. For the hamsters sacrificed at the conclusion of the experiment and those sacrificed as moribund, serum and liver tissues were collected and banked for possible determination of serum transaminase levels and virus burden in the liver. Liver tissue was preserved in formalin for possible histopathological examination.

[2] = tested on: adenovirus 4 (AdV4); assay: Efficacy against adenovirus 4 (data not shown)
[3] = Pharmacokinetics of filociclovir in immunosuppressed hamsters; assay type: in vivo, Syrian hamsters; conditions: 6 hours after administration
Description: In order to test the pharmacokinetics of filociclovir, we use a Syrian male hamster model of adenovirus infection. Syrian hamsters were given either an oral (p.o. 50 mg/kg) or intravenous (i.v. 10 mg/kg) dose of filociclovir. […] For i.v. administration, filociclovir was dissolved in DMSO (Sigma D2650) and then diluted with water to a final concentration of 5 mg/ml for filociclovir and 75% DMSO. The dosing solutions were prepared one day before use and stored at 4° C. Male Syrian hamsters were purchased from Envigo (Hackensack, N.J.) at ˜100 g body weight. […] The animals received three injections of CP before the administration of filociclovir. Two groups of animals (12 hamsters/group) were used for the two routes of administrations. In addition, three untreated animals (the same three hamsters for both routes) served as mock controls. The p.o. and i.v. experiments were performed on two consecutive days. As the hamsters weighed approximately 100 g, (+/−10%), they were administered 1 ml and 0.2 ml for the p.o. and i.v. routes, respectively, to achieve the desired dose. For both routes, 3 hamsters were sacrificed at 0.5, 1, 3, and 6 hr post dosing. […]

Nc1nc2c(ncn2/C=C2/CC2(CO)CO)c(=O)[nH]1 [FCV, 2-amino-9-{(Z)-[2,2-bis(hydroxymethyl)cyclopropylidene]methyl}-3,9-dihydro-6H-purin-6-one]
body weight loss ([1]; 10 mg/kg p.o. q.d.): reversed | mortality ([1]; 10 mg/kg p.o. q.d.): prevented mortality | virus burden in the liver ([1]; 10 mg/kg, 5 days post challenge): one animal in the AdV6+10 mg/kg filociclovir group with a very low liver virus burden | body weight loss ([1]; 30 mg/kg p.o. q.d.): reversed | mortality ([1]; 30 mg/kg p.o. q.d.): prevented mortality | virus burden in the liver ([1]; 30 mg/kg, 5 days post challenge): nondetectable level | toxicity for AdV6-infected hamsters ([1]; 60 mg/kg p.o. q.d.): toxic | toxicity for AdV6-infected hamsters ([1]; 100 mg/kg p.o. q.d.): toxic | animals with elevated serum transaminase levels (ALT) ([1]; 5 days post challenge, filociclovir p.o. q.d. groups, CDV 20 mg/kg 3 times weekly): none | kidney pathology at day 5 sacrifice ([1]; AdV6+60 mg/kg): extensive kidney pathology | kidney pathology at day 5 sacrifice ([1]; AdV6+100 mg/kg): extensive kidney pathology | treat or prevent infection [2]: effective | detectability after administration ([3]; i.v. 10 mg/kg): still detectable | detectability after administration ([3]; p.o. 50 mg/kg): still detectable

Reference: patent US20220168310A1, “INHIBITION OF ADENOVIRUS WITH FILOCICLOVIR” (Microbiotix, Inc., priority 2019, published 2022)
